According to patent publication US20090202499A1, “Human Telomerase Reverse Transcriptase Peptides” (priority 2006, published 2009):
“Also recorded” adds a separate entry of the source.

Key:
[1] = tested on: T2-B7 pulsed with peptide; assay: small scale in vitro immunization of normal donor PBMC (96 well plate), micro 51Cr-release CTL assay; assay type: cell-based, human; conditions: for CTL response (specific lysis) Donor 1 / CTL response (specific lysis) Donor 2 / CTL response (specific lysis) Donor 3 / CTL response (specific lysis) Donor 4 / CTL response (specific lysis) Donor 5 / CTL response (specific lysis) Donor 6 / CTL response (specific lysis) Donor 7 / CTL response (specific lysis) Donor 8: HLA-B7+ normal donor PBMC, day 10-11, approximate E:T 10:1; for CTL response of normal donor PBMC in micro-CTL assay (in words): eight HLA-B7+ normal donors; for Low R/Total: low responders among eight donors; for High R/Total: responders considered at >50% specific CTL lysis, eight donors
Experimental: In vitro immunization procedures. In experiments shown in Table III and FIG. 3, immunizations were performed in 96 well plates. Briefly, 2×10^5 irradiated (6000 rads) human PBMC were plated in 96 (flat) well-plate in 100 micro-liters of complete human medium (RPMI 1640 medium containing 10% heat inactivated human AB serum, 2 mM glutamine, 50 micro-grams/ml streptomycin and 50 micro-grams/ml penicillin) with 100 micro-grams/ml of peptide. 12 wells per peptide were plated per patient. Then 2×10^5 PBMC in 100 micro-liters of complete human medium were added into each well. Four days later 100 micro-liters of medium were replaced with 100 micro-liters of fresh complete human medium containing 80 IU/ml of IL-2. At day 6-7, 100 IU/ml of IL-2 were added and wells were split into two. On day 10-11 micro-cytotoxicity assay was performed. In experiments shown in FIGS. 4 and 5 human PBMC were stimulated in vitro in 24 well plate with autologous, irradiated, peptide-pulsed adherent cells in the presence of IL-2 and IL-7 as previously described (12). On day 4 to 5 after restimulation, effector CTL were tested in a standard ^51Cr-release assay.
(§1) CTL assays. Both murine and human CTL were detected by the ^51Cr release assay performed as previously described (14). Briefly, HLA-B7^+ antigen presenting cells (RMA-B7 or T2-B7 cells) were labeled for 1 hr with 100 micro-Ci of Na2^51CrO4 (Perkin Elmer). Washed cells (5×10^3 per well) were mixed in 96-well plates in 100 micro-liters/well with each peptide (at 10 micro-grams/ml or lower concentration) and 100 micro-liters of the CTL effector cells (at various E:T ratio) in RPMI medium. The plates were incubated for 4-5 hrs at 37° C. (5% CO2). The supernatants were harvested and counted on a Wallac 1470 Wizard Gamma counter. The percent lysis was calculated as 100 (cpmexp−cpmspont)/(cpmmax−cpmspont).
To further assess the immunogenicity of the selected peptide candidates as well as their ability to expand precursor CD8 T cell in human PBMC, the following experiment was performed. PBMC from eight HLA-B7^+ normal donors were screened in a small scale in vitro immunization assay (96 well plate assay) to determine the level of responses against each individual peptide. As indicated the response to these peptides varied among the eight donors. […] Thus, the results of this in vitro assay narrowed the spectrum of immunogenic peptides beyond those identified in vivo in HLA-B7 Tg mice. A typical result of this type of analysis is shown in FIG. 3, which depicts the induction of CTL and their specificity in each of the twelve wells. As shown, there is considerable variability in the number of positive wells per peptide as well as in the percentage lysis which itself varied from peptide to peptide. This variation in the response to each peptide may be related to either an intrinsic characteristic of the peptide (e.g., its avidity) or a variation in the frequency of CD8 T cell precursors for that peptide among donors particularly in view of the format of the assay used.
PBMC from HLA-B7^+ normal blood donors were pulsed with the candidate peptide in 96 well plate assay (described in Material and Methods), and tested for lysis of T2-B7 pulsed with peptide on day 10-11. A micro ^51Cr-release assay was performed as described in Material and Methods. Responders were considered at >50% specific CTL lysis. CTL assays were performed at an approximate E:T ratio of 10:1. ND not done

RMA-B7 target cells = assay: hTRT pDNA immunization of HLA-B7 Tg mice, 51Cr-release assay (in vivo processing); conditions: for % Responders / Responders/Total: hTRT pDNA immunized mice, responder when >10% specific lysis; for Responders/Total: E:T 60:1; for processing and CTL response after hTRT plasmid DNA immunization (in words): splenocytes restimulated in vitro with peptide
Experimental: DNA immunization. A DNA vector coding for the hTRT expressed under the control of CMV promoter was purified on plasmid Giga Kit columns under endotoxin-free conditions (Qiagen, Hilden, Germany). Anesthetized HLA-B*0702 transgenic mice were injected with 50 micro-liters of cardiotoxin into each tibialis anterior muscle 5-6 days prior DNA injection. For vaccination, 50 micro-liters of DNA (1 micro-gram/micro-liter in PBS) was injected into each pretreated muscle at day 0 and day 14. Ten days later, spleen cells of individual mice were separately restimulated in vitro with each relevant peptide (10 micrograms/ml) for 6 days. Effector CTL cells were tested in a standard 4 hr ^51Cr-release assay, using RMA-B7 cells (HLA-B*0702 transfected RMA cells) pulsed with test peptide or control peptide (CMV p65-derived R10TV restricted to HLA-B7). Specific % lysis as indicated below. In vivo immunization procedures were preformed in accordance with approved animal protocols at the University of California, San Diego or the Pasteur Institute, respectively.
as §1
Next, we established which among the various candidate peptides was processed and presented from full-length hTRT. To this end, we immunized HLA-B7 Tg mice with hTRT plasmid DNA. […] As shown in Table IV some but not all the peptides were processed and presented in vivo. […] Based on this analysis, it appears that only three of the original seven peptides were processed and presented efficiently in vivo. […] Thus, selection using PAProC algorithm was per se unable to predict hTRT peptides that would be cleaved and become immunogenic in vivo.
HLA-B7 Tg mice were immunized with a pDNA coding for full-length hTRT under the CMV promoter. ^51Cr-release assay was performed after 6 days of in vitro restimulation with respective peptide. Mice were considered responders when >10% specific lysis was observed. Tests were run in duplicate at an E:T ratio of 60:1, using RMA-B7 target cells.

| Compound | CTL response (specific lysis) Donor 1 [1] | CTL response (specific lysis) Donor 2 [1] | CTL response (specific lysis) Donor 3 [1] | CTL response (specific lysis) Donor 4 [1] | CTL response (specific lysis) Donor 5 [1] | CTL response (specific lysis) Donor 6 [1] | CTL response (specific lysis) Donor 7 [1] | CTL response (specific lysis) Donor 8 [1] | CTL response of normal donor PBMC in micro-CTL assay (in words) [1] | Low R/Total [1] | High R/Total [1] | % Responders (RMA-B7 target cells) | Responders/Total (RMA-B7 target cells) | processing and CTL response after hTRT plasmid DNA immunization (in words) (RMA-B7 target cells) |
| --- | --- | --- | --- | --- | --- | --- | --- | --- | --- | --- | --- | --- | --- | --- |
| CC(C)C[C@H](NC(=O)[C@H](CO)NC(=O)[C@@H](NC(=O)[C@H](C)NC(=O)[C@H](CCC(=O)O)NC(=O)[C@H](CCC(=O)O)NC(=O)[C@H](C)NC(=O)[C@@H]1CCCN1C(=O)[C@@H](N)CCCNC(=N)N)[C@@H](C)O)C(=O)O [p277] | >50% | >50% | >50% | >50% | >50% | <25% | <25% | <25% | strong responses in the majority of the subjects | 0/8 | 5/8 | 57% | 4/7 | greater CTL responses than the other peptides |
| CC(C)C[C@H](NC(=O)[C@H](CO)NC(=O)[C@H](CO)NC(=O)[C@H](CC(C)C)NC(=O)[C@H](CC(C)C)NC(=O)[C@H](Cc1ccccc1)NC(=O)[C@H](CO)NC(=O)[C@@H]1CCCN1C(=O)[C@@H](N)CCCNC(=N)N)C(=O)O [p342] | >25% | >25% | >25% | >50% | 0% | <25% | >25% | 0% | strong responses but in fewer instances only | 4/8 | 1/8 | 29% | 2/7 | marginally immunogenic if any |
| CC(C)C[C@H](NC(=O)[C@H](CC(C)C)NC(=O)[C@H](CCC(N)=O)NC(=O)[C@@H](NC(=O)[C@H](CC(C)C)NC(=O)[C@H](CCCNC(=N)N)NC(=O)[C@H](CCCNC(=N)N)NC(=O)[C@@H]1CCCN1C(=O)[C@@H](N)CC(=O)O)C(C)C)C(=O)O [p444] |  |  | <25% | >25% | 0% | 0% | 0% | <25% | poorly immunogenic in vitro; also recorded: poor immunogenicity | 1/8 | 0/8 | 0% | 0/4 | apparently not processed; also recorded: marginally immunogenic if any |
| CC(C)C[C@H](NC(=O)[C@H](CCCNC(=N)N)NC(=O)[C@H](CCCNC(=N)N)NC(=O)[C@H](CC(C)C)NC(=O)[C@H](CS)NC(=O)[C@H](C)NC(=O)[C@H](CCCNC(=N)N)NC(=O)[C@@H](NC(=O)[C@@H](N)Cc1ccccc1)C(C)C)C(=O)O [p464] | >50% | >50% | 0% | >25% | <25% | <25% | <25% | 0% | strong responses but in fewer instances only | 1/8 | 2/8 | 17% | 2/6 | marginally immunogenic if any |
| CC(C)C[C@H](NC(=O)[C@H](C)NC(=O)[C@@H](NC(=O)[C@H](CC(C)C)NC(=O)[C@@H](NC(=O)[C@@H](NC(=O)CNC(=O)[C@@H]1CCCN1C(=O)[C@@H](N)CC(C)C)[C@@H](C)O)[C@@H](C)O)[C@@H](C)O)C(=O)O [p1107, LPGTTLTAL] | >50% | >50% | 0% | >50% | >25% | <25% | >25% | 0% | strong responses but in fewer instances only | 2/8 | 3/8 | 50% | 3/6 | greater CTL responses than the other peptides |
| CC[C@H](C)[C@H](NC(=O)[C@@H](NC(=O)[C@H](CCCCN)NC(=O)[C@H](Cc1ccccc1)NC(=O)[C@H](CC(=O)O)NC(=O)[C@H](CO)NC(=O)[C@@H]1CCCN1C(=O)[C@@H](N)CC(C)C)[C@@H](C)O)C(=O)N[C@@H](CC(C)C)C(=O)O [p1123] | >50% | >50% | >50% | <25% | >50% | >50% | >50% | >50% | strong responses in the majority of the subjects | 0/8 | 7/8 | 50% | 3/6 | greater CTL responses than the other peptides |
